In patent publication US20260355147A1, “COMPOSITIONS COMPRISING TRIGONELLINE AND A UROLITHIN” (Amazentis SA, priority 2023, published 2026):

Tests used:
[1] = system: HSMM human primary skeletal muscle myoblasts; test: Mitochondrial respiration (oxygen consumption rate) in human primary skeletal muscle myoblasts HSMM (Seahorse XF96); format: cell-based; settings: 24 hours, normalized over cellular DNA content
Experimental: Cells were treated as indicated with Urolithin A (UA) 6.25 uM and trigonelline (Trig) 500 uM, alone or in combination. DMSO 0.1% was used as control. Data are expressed as mean+/−SD. One-Way ANOVA, * p.val.<0.05.
A combined treatment of urolithin A and trigonelline was performed and mitochondrial respiration was measured in human primary skeletal muscle cells.
Mitochondrial respiration was measured as oxygen consumption rate on HSMM (LZ-CC-2580, Lonza), human primary skeletal muscle myoblasts was measured with a Seahorse XF96 extracellular flux analyzer. HSMMs were seeded at 3,500 cells/well in an XF96 cell culture microplate and cultured at 37 °C in a humidified atmosphere of 5% C02 in SKM-M Growth medium (AMSbio). […] Oxygen consumption rate was measured in Krebs Cycle medium (135 mM NaCl, KCL 3.6 mM, 0.5 mM NaH2PO4, 0.5 mM MgSO4, 10 mM HEPES, 5 mM NaHCO3) supplemented with 10 mM Glucose, 10 mM pyruvate and 2 mM Glutamine. Maximal respiration was monitored by injection of 6 μM FCCP in the cartridge. To normalize for differences in cell number across well, cellular DNA content was measured in the same microplate using the CyQuant NF kit (Thermofisher, C35006), following the manufacturer's instructions. Normalized mitochondrial respiration was then calculated as ratio between oxygen consumption rate and DNA content and expressed as fold change over the DMSO of the basal condition.

[2] = system: C2C12 muscle cell line; settings: Ryu, D. et al. Nature Medicine 2016, 22, 879; cited from earlier work
[3] = system: C2C12 myotubes; test: Mitochondrial respiration in C2C12 myotubes (Seahorse XF96, fatty acid oxidation analysis); format: cell-based, Mouse; settings: 50 uM, 24 hours (FIG. 1)
Experimental: A combined treatment of urolithin A and trigonelline was performed and mitochondrial respiration was measured in rodent skeletal muscle cells.
Fatty acid oxidation analysis on C2C12 myotubes was measured with a Seahorse XF96 extracellular flux analyzer. C2C12s were seeded at 8,000 cells/well in an XF96 cell culture microplate. Once cells reached confluence, they were differentiated with DMEM (Gibco, 31966047) supplemented with 2% Horse serum, 1% PenStrep and 1% Hepes for 5 days. Cells were treated with UA 50 uM and Trigonelline 50 uM (Sigma, T5509) for 24 hours in substrate-limited media (Gibco, A1443001) supplemented with 0.5 mM glucose, 1 mM glutamine, 1% Oleic acid and 0.5 mM L-Carnitine. Maximal respiration was monitored by injection of 3 μM FCCP in the cartridge. Prior to the assay, cells were incubated in a Fatty acid oxidation medium (111 mM NaCl, 4.7 mM KCl, 1.25 mM CaCl2, 2 mM MgSO4, 1.2 mM NaH2PO4, 5 mM L-Carnitine, 5 mM Hepes, 2.5 mM Glucose) for 20 min, solution must be adjusted to pH 7.4 at 37 °C.

[4] = system: C. elegans; settings: in vivo; cited from earlier work
[5] = system: muscle mass; settings: in vivo; cited from earlier work
[6] = system: rodent tissues; settings: in vivo; cited from earlier work
[7] = system: HSMM myotubes; settings: only at 1000 uM, 72 h, with simultaneous blocking of NAD+ salvage pathway with FK866; cited from earlier work
[8] = system: skeletal muscle cells; settings: cited from earlier work
[9] = system: human cells; settings: at this dose (50 uM); FIG. 1 of US 2022/0241259 A1; cited from earlier work

SMILES	mitochondrial respiration ([1]; urolithin A alone, 6.25 uM)	mitochondrial respiration [2]	mitochondrial respiration ([3]; urolithin A alone)	lifespan in C. elegans models [4]	muscle mass in rodents [5]	NAD^+ levels in rodent tissues [6]	mitochondrial respiration ([1]; trigonelline alone, 500 uM)	mitochondrial respiration in HSMM myotubes [7]	mitochondrial respiration ([3]; trigonelline alone)	NAD^+ levels in skeletal muscle cells [8]	biological effect on NAD production in human cells [9]
O=c1oc2cc(O)ccc2c2ccc(O)cc12 [Urolithin A, urolithin A]	induced mitochondrial respiration	induced mitochondrial respiration as shown previously in the C2C12 muscle cell line	induced mitochondrial respiration	–	–	–	–	–	–	–	–
C[n+]1cccc(C(=O)[O-])c1 [trigonelline]	–	–	–	increase lifespan	induce muscle mass	help to increase NAD^+ levels	Mitochondrial respiration was also increased	improvement in mitochondrial respiration	Mitochondrial respiration was also increased	help to increase NAD^+ levels	not shown to have a significant biological effect on NAD production
